From ChEMBL document CHEMBL1201862, “PubChem BioAssay data set” (2004)
Active and inactive are the calls of the source.

Columns and labels:
[1] = target: T1, Short transient receptor potential channel 4 (Mus musculus, UniProt Q9QUQ5); experiment: mouse TRPC4 channel activators, dose response, cell-based, HEK293 TRPC4/mu-opioid, Fluo-4 calcium (AID 434937); format: functional
T1 sequence (Q9QUQ5 whole entry): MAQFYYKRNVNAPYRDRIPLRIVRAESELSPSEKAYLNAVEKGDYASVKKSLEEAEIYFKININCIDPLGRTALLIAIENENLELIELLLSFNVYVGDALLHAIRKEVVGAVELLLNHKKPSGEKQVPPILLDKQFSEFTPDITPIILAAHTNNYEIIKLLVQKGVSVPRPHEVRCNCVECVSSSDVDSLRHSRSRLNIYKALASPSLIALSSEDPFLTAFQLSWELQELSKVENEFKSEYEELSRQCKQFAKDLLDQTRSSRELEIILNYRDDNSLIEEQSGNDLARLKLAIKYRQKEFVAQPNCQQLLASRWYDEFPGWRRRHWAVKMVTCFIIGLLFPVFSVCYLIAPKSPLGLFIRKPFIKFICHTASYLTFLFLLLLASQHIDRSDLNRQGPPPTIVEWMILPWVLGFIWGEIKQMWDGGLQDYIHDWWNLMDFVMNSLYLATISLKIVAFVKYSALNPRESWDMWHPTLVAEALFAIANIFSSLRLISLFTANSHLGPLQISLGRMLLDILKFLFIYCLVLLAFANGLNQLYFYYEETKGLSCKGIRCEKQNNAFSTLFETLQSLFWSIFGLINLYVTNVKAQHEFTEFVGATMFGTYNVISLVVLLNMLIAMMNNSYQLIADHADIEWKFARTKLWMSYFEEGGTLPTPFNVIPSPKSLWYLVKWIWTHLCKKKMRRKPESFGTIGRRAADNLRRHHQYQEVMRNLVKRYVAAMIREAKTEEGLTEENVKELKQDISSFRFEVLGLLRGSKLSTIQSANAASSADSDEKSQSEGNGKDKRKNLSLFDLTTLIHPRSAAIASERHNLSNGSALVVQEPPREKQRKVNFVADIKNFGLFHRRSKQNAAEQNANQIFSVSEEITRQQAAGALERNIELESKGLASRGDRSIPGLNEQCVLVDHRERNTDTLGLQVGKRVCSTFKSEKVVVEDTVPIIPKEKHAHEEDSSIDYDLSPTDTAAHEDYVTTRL

[2] = target: T2, Voltage-gated N-type calcium channel alpha-1B subunit/Amyloid beta A4 precursor protein-binding family A member 1 (Homo sapiens, UniProt Q00975+Q02410); format: protein assay
[3] = target: T2, Voltage-gated N-type calcium channel alpha-1B subunit/Amyloid beta A4 precursor protein-binding family A member 1; format: protein assay; remark: listed apart in the source
Vero = experiment: cells; format: functional; conditions: Chlorocebus sabaeus
[4] = tested on: Streptococcus sp. 'group A'; experiment: growth inhibition of control SK(-) GAS strain, dose response, counter-screen for streptokinase expression inhibitor project, luminescence, kanamycin, BacTiterGlo, confirmation (AID 1900); format: functional, organism-based
Streptokinase A = target: T3, Streptokinase A (Streptococcus pyogenes serotype M1, UniProt P10520); experiment: S. pyogenes streptokinase expression inhibitors, potency, dose response, plasminogen activation absorbance, OD405 (AID 1914); format: functional, Streptococcus pyogenes M1 GAS;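 further: secreted streptokinase activity via plasminogen activation per viability signal from cell pellet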
T3 sequence (P10520 whole entry): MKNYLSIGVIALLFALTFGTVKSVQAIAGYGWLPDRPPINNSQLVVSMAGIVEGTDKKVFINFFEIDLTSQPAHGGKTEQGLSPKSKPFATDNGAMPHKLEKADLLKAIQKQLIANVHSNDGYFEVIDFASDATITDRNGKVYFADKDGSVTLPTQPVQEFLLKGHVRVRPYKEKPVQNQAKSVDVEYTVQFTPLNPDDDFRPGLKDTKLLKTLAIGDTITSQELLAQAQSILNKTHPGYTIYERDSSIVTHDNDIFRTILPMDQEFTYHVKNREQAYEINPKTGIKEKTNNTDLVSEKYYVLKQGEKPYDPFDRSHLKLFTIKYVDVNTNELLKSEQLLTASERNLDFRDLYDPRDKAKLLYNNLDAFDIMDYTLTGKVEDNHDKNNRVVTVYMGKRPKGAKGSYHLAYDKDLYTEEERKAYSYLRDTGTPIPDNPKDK

[5] = target: Induced myeloid leukemia cell differentiation protein Mcl-1 (Homo sapiens, UniProt Q07820); format: functional
Streptococcus = experiment: Group A Streptococcus viability loss, dose response, counter-screen for streptokinase expression inhibitor project, luminescence, BacTiterGlo (AID 1915); format: functional, organism-based;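 further: potency for reduction of bacterial viability or growth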
[6] = target: T4, Replicative DNA helicase DnaB (Mycobacterium tuberculosis, UniProt P9WMR3); experiment: DnaB intein splicing inhibitors, dose response, biochemical, cell-free fluorescence (AID 449749); format: functional
T4 sequence (P9WMR3 whole entry): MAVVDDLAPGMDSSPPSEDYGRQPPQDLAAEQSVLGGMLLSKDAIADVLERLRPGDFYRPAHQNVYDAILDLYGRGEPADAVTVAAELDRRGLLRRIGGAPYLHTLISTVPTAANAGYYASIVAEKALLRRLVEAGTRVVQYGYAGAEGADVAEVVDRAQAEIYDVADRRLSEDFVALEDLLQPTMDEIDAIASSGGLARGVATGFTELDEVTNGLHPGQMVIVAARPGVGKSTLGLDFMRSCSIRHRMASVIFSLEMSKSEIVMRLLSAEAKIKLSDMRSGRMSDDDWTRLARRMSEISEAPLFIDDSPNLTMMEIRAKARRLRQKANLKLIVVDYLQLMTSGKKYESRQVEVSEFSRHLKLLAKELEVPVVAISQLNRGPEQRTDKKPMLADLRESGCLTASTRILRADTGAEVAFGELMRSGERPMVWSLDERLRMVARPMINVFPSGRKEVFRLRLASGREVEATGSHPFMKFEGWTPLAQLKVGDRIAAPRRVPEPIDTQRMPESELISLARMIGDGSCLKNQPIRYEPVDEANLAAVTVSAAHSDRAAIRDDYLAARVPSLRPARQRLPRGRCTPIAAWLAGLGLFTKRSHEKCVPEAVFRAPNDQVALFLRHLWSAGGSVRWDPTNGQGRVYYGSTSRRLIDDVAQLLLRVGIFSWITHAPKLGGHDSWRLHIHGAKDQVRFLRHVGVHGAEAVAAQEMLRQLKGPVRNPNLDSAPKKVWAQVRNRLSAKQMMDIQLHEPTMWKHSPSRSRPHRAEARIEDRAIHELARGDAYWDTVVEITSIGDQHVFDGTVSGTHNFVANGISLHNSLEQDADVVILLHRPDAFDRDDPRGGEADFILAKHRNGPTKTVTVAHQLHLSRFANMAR

Protein RecA = target: T5, Protein RecA (Mycobacterium tuberculosis, UniProt P9WHJ3); experiment: Fluorescence Cell-Free Homogeneous Dose Retest to Identify Inhibitors of RecA-Intein Splicing Activity. [Related pubchem assays (depositor defined):AID2097, AID2223, AID489010, AID492950]; format: functional
T5 sequence (P9WHJ3 whole entry): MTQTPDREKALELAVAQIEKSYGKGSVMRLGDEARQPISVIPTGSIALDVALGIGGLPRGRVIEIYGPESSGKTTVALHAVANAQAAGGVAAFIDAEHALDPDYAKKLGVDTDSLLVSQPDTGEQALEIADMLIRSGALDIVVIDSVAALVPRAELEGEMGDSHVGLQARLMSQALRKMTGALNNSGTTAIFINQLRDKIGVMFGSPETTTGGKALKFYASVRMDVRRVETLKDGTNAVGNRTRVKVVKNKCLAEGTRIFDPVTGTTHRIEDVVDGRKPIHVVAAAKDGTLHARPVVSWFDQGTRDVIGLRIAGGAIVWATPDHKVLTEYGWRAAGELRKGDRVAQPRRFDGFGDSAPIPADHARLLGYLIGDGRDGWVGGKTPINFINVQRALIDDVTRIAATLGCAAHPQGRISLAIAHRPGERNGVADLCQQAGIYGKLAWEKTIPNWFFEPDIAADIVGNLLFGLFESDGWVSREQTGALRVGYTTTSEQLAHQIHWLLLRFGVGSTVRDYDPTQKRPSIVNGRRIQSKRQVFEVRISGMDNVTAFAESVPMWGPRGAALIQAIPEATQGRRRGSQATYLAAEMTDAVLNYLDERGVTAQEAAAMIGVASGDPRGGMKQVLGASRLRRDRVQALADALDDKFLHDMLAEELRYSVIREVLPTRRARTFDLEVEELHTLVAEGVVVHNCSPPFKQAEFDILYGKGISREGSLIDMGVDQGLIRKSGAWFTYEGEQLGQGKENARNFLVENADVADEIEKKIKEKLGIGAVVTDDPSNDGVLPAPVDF

[7] = target: T6, Ubiquitin-conjugating enzyme E2 N (Homo sapiens, UniProt P61088); format: functional;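 further: Dose-response confirmation in a TR-FRET assay detecting UBC13-driven polyubiquitin chain formation, inhibition measured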
T6 sequence (P61088 whole entry): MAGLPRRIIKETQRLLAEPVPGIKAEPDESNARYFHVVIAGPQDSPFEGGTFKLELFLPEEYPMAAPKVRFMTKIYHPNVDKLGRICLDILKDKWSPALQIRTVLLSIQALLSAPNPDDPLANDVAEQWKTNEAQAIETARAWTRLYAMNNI

[8] = growth suppression of PTEN-null colon cells, dose response, cell-based, HCT116 PTEN knockout (AID 1047); format: functional;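 further: HCT116 colon tumor cells with PTEN knocked out; cells exposed to compound for 60 hours before readout; potency for loss of cell viability measured by luminescence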
[9] = growth suppression of beta-catenin-knockout colon cells, dose response, cell-based, HCT116, human colon tumor (AID 1045); format: functional;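 further: HCT116 colon tumor cells with beta catenin knocked out; cells exposed to compound for 60 hours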
Large T antigen = Large T antigen (Simian virus 40, UniProt P03070); format: functional, Betapolyomavirus macacae;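 further: Confirmatory-stage PubChem screen for compounds that inhibit SV40 T antigen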
[10] = target: Luciferin 4-monooxygenase (Photinus pyralis, UniProt P08659); experiment: firefly luciferase enzyme inhibitors, dose response, biochemical, luminescence (AID 1891)
[11] = Luminescence Cell-Based Dose Confirmation HTS to Identify Inhibitors of Platelet Dense Granule Release. [Related pubchem assays: 1663 (Primary HTS), 1678 (Summary of Project)]; format: functional
H9c2 = experiment: cells; format: functional, cell-based; conditions: Rattus norvegicus, H9c2, Myocardium;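 further: confirmatory concentration-response retest of ultra-high-throughput screening hits for modulation of myocardial damage; cell death induced by hydrogen peroxide oxidative stress; compound pretreatment for 60 min then peroxide exposure for 2 h; potency is for protecting the cells against peroxide damage rather than for killing them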

T2 sequence (Q00975 whole entry): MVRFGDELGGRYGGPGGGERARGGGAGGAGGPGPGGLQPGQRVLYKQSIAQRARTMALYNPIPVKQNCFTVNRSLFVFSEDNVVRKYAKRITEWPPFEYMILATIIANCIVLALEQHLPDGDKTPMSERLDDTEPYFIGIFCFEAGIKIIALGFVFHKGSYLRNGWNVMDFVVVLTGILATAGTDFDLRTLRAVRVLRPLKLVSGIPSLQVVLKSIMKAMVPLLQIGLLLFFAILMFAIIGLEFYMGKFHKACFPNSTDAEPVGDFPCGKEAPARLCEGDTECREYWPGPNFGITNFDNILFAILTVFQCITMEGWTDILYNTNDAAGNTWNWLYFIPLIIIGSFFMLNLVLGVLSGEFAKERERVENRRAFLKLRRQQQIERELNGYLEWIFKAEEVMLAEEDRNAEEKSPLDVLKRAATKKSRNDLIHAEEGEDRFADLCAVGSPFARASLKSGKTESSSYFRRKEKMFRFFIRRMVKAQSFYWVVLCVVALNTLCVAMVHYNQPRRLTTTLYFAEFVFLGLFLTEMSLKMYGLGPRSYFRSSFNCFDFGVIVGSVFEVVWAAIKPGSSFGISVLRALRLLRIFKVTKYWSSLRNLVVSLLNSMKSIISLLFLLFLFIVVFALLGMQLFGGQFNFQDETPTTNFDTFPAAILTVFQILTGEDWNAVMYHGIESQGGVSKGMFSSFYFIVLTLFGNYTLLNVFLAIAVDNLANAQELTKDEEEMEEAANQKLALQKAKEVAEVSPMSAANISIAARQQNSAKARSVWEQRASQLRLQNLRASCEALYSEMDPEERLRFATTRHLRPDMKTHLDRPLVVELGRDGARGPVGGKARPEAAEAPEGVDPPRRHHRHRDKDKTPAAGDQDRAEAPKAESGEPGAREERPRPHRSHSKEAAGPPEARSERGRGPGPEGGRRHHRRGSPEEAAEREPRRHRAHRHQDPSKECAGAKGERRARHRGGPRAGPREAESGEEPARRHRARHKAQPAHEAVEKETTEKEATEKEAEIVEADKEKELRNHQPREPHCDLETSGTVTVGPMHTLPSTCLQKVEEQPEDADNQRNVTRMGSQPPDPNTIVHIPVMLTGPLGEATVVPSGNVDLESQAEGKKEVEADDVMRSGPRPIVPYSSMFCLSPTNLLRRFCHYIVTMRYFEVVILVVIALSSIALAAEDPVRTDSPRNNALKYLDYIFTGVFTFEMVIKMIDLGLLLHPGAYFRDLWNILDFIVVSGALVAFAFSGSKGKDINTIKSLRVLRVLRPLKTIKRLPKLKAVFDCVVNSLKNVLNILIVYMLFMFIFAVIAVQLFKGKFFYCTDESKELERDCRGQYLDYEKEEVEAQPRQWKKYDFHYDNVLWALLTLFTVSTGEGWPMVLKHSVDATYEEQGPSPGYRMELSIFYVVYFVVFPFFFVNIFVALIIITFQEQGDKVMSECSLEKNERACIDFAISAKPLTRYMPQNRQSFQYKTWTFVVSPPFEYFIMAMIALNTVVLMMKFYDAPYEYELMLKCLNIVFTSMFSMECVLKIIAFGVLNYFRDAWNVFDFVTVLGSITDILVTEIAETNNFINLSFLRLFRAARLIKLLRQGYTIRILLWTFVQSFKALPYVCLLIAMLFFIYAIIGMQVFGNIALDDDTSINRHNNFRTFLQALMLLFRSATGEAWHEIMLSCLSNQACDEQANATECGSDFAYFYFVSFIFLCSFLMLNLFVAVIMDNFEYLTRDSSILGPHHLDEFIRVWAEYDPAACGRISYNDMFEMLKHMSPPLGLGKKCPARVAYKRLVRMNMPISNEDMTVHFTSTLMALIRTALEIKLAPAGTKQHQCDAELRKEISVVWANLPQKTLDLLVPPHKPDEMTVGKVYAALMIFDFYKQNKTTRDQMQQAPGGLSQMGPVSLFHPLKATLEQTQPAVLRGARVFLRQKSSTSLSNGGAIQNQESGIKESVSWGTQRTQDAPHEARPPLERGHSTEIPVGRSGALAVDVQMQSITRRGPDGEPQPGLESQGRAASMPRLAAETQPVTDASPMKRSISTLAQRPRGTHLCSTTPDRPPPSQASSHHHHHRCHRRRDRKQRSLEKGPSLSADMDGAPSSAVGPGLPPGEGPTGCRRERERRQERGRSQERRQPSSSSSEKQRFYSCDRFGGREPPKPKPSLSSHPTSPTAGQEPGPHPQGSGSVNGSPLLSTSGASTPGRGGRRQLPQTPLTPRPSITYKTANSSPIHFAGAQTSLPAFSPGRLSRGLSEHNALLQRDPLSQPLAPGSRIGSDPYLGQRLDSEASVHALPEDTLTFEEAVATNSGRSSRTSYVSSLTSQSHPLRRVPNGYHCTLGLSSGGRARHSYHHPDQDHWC
T2 sequence (Q02410 whole entry): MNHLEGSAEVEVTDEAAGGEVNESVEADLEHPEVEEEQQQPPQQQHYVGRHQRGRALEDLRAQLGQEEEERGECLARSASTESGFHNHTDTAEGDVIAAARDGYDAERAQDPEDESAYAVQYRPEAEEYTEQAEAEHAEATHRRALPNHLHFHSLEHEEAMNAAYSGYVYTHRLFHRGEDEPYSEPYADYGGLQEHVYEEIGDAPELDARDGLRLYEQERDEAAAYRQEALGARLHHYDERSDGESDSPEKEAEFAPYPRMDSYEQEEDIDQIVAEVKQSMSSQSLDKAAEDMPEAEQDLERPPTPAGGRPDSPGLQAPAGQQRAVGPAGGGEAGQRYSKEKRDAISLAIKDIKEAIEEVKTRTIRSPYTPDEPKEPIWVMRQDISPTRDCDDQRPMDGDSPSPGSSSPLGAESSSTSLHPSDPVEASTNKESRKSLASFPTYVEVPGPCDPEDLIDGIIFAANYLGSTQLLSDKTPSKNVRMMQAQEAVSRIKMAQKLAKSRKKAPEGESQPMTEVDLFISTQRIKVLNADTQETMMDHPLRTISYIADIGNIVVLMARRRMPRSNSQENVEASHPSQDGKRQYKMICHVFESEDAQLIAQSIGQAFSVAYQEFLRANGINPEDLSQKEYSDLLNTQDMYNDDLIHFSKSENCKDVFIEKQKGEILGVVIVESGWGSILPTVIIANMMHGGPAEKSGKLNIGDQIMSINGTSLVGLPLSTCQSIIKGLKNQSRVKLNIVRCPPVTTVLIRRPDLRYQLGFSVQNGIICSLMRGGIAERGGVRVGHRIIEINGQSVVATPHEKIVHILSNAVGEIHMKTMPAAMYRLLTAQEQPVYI
Sequence of Induced myeloid leukemia cell differentiation protein Mcl-1 (Q07820 whole entry): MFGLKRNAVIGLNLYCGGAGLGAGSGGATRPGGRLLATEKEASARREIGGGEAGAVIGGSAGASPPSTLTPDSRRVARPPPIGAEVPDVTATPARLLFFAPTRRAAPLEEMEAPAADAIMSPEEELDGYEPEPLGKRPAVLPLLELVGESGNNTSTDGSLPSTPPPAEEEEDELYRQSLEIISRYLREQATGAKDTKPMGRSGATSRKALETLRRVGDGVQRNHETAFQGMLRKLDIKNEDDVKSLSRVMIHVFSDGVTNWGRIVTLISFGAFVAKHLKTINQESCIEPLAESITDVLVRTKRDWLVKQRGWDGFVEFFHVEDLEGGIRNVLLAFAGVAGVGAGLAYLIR
Sequence of Luciferin 4-monooxygenase (P08659 whole entry): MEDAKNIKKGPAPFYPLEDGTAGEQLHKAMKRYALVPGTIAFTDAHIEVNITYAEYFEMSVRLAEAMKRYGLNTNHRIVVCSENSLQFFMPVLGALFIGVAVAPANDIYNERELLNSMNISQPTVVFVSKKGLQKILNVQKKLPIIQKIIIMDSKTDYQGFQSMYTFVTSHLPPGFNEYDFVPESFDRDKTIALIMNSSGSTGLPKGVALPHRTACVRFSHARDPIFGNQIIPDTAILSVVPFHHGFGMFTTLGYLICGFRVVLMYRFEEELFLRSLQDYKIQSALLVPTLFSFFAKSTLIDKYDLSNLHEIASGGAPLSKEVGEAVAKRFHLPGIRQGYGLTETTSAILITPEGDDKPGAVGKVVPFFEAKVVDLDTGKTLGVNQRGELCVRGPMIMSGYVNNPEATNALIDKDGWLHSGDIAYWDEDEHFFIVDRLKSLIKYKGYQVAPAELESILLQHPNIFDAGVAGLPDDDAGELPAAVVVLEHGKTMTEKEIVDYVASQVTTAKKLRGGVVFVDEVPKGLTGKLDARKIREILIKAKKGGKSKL
Sequence of Large T antigen (P03070 whole entry): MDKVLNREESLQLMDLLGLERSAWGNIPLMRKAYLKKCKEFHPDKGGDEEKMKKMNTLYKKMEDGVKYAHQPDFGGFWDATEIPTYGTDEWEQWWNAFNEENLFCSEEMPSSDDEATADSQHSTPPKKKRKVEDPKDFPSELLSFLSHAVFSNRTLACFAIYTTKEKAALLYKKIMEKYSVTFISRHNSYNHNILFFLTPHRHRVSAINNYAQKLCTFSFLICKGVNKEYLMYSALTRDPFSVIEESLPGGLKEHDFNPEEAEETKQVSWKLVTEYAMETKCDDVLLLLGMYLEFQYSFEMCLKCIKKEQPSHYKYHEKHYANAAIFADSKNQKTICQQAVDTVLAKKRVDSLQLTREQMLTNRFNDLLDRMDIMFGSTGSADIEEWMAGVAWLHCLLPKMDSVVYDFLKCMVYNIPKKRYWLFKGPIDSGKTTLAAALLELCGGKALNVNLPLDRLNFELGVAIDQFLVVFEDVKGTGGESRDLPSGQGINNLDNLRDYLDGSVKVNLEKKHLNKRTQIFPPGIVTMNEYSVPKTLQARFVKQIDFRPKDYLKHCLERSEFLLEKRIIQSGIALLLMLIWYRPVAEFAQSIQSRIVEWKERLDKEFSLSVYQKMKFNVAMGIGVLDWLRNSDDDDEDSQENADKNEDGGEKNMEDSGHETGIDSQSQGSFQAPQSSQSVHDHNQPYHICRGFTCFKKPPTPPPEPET

O=C(CC(=O)c1c(F)cccc1Cl)c1ccccc1O
EC50 [1]: 10.6 µM (active)

O=C(CCS(=O)(=O)c1ccccc1)Nc1ccc(-c2nc3ccccc3s2)cc1
IC50 [2]: 12.5 µM (active)
IC50 [3]: > 50 µM (inactive)

Cc1ccc(NS(=O)(=O)c2ccc(C(=O)N3CC(C)CC(C)C3)cc2)cc1 (centres undefined)
EC50 [1]: 4.22 µM (active)

N=C(NC(=O)c1ccccc1)N1CCN(C(c2ccccc2)c2ccccc2)CC1
CC50 (Vero): > 25 µM (active)

N#Cc1c(O)nsc1Nc1ccccc1Cl
IC50 [2]: 4.76 µM (active)
IC50 [3]: > 50 µM (inactive)

CCN1C(=O)N/C(=C/c2ccc(C)o2)C1=O
IC50 [2]: 3.29 µM (active)
IC50 [3]: 22.6 µM (active)

CCOC(=O)C1=C(O)c2ccccc2C(=O)/C1=C\c1ccc(CC)cc1
EC50 [4]: 13 µM (active)
EC50 (Streptokinase A): > 150 µM (not active)
IC50 [5]: 7.19 µM (active)
EC50 (Streptococcus): 38.1 µM (active)
AC50 [6]: 4.44 µM (active)
EC50 (Protein RecA): 8.86 µM (active)

COc1ccc(NC(=O)c2cc3ccc4c5ccccc5[nH]c4c3cc2O)cc1
IC50 [2]: 9.55 µM (active)
IC50 [3]: > 50 µM (inactive)

CCN1C(=O)CC(c2ccccc2)N(C2CCCC2)c2nc(Nc3ccc(C(=O)NC4CCN(C)CC4)cc3OC)ncc21 (centres undefined)
IC50 [7]: > 20 µM (inactive)

O=C(Cc1cccc(F)c1F)NC1CCCN(Cc2ccc(Cl)cc2)C1 (centres undefined)
EC50 [1]: 0.944 µM (active)

COc1cc(OC)cc(C(=O)NC(=S)NNC(=O)[C@H]2C[C@@H]2c2ccccc2)c1
EC50 [1]: 2.99 µM (active)
CC50 (Vero): 23.8 µM (active)

CC(C)CC(C(=O)NC1CCCC1)N(Cc1ccc2c(c1)OCO2)C(=O)c1snc(C(N)=O)c1N (centres undefined)
IC50 [7]: > 20 µM (inactive)

Cn1c(=O)c2c(nc(CN3CCc4ccccc4C3)n2Cc2ccccc2F)n(C)c1=O
EC50 [1]: 5.31 µM (active)

CCCc1n[nH]c2c1C(C1CC=CCC1)C(C#N)=C(N)O2 (centres undefined)
EC50 [8]: 33.2 µM (active)
EC50 [9]: 139 µM (active)
CC50 (Vero): > 25 µM (active)

COc1ccc(OC)c(CCNC(=O)Cn2sc3nc(C)cc(C)c3c2=O)c1
IC50 [2]: 5.66 µM (active)
IC50 (Large T antigen): 22.1 µM (active)
IC50 [3]: > 50 µM (inactive)
EC50 [8]: 18.3 µM (active)
EC50 [9]: 16.7 µM (active)

COc1cc(OC)cc(C(=O)NCCCN2CCN(CCCNC(=O)c3cc(OC)cc(OC)c3)CC2)c1
EC50 [10]: > 112 µM (not active)
EC50 [11]: > 112 µM (not active)
EC50 [1]: 0.188 µM (active)

COc1ccccc1CN(Cc1nc(O)c2ccccc2n1)S(=O)(=O)c1ccc2ccccc2c1
EC50 [8]: 16.7 µM (active)
EC50 [9]: 17.4 µM (active)
IC50 (H9c2): 20.5 µM (active)
CC50 (Vero): > 25 µM (active)

NC(=O)c1nsc(C(=O)N(c2cccc(F)c2)C(C(=O)NC2CCCC2)c2ccc(O)cc2)c1N (centres undefined)
IC50 [7]: > 20 µM (inactive)
